One block for each compound: values may come before it. The source made the active and inactive calls. The calls are words filed in the database; no cut-off is given here.
Key:
[1] = biological target: T1, 3',5'-cyclic-AMP phosphodiesterase 4D (Homo sapiens, UniProt Q08499); assay: Inhibition of human N-terminal GST-tagged PDE4D7 (2 to 748 residues) expressed in baculovirus infected Sf9 insect cells using FAM-cyclic-3',5'-AMP as substrate measured after 1 hr by fluorescence polarization assay
[2] = biological target: T2, 3',5'-cyclic-AMP phosphodiesterase 4B (Homo sapiens, UniProt Q07343); assay: Inhibition of recombinant human N-terminal GST-tagged PDE4B1 (1 to 736 residues) expressed in Sf9 insect cells using FAM-cyclic-3',5'-AMP as substrate measured after 1 hr by fluorescence polarization assay
T2 sequence (Q07343 whole entry, the tested form may be a part): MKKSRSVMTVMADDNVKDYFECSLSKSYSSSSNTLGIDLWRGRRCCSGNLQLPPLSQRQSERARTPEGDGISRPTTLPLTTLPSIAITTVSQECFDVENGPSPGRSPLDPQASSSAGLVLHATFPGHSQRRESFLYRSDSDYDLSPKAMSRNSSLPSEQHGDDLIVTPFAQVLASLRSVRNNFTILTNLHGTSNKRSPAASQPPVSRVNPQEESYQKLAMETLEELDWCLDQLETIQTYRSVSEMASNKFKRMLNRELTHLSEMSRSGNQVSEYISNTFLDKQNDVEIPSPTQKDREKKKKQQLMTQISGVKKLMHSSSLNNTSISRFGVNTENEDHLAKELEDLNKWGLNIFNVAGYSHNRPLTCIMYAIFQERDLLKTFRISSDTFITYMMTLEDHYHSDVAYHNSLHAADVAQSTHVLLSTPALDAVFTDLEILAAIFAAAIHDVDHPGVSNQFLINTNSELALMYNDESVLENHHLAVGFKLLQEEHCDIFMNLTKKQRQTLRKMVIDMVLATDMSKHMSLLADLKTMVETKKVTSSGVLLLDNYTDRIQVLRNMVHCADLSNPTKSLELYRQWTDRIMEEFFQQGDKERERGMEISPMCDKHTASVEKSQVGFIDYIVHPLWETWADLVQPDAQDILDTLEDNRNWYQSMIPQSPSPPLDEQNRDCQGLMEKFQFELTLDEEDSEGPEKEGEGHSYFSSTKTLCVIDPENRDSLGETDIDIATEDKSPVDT

[3] = Oral bioavailability in mouse at 5 mg/kg by LC-MS/MS analysis; type: ADME, organism-based; conditions: in vivo
[4] = biological target: T1, 3',5'-cyclic-AMP phosphodiesterase 4D; assay: Inhibition of PDE4D7 (unknown origin)
[5] = biological target: T2, 3',5'-cyclic-AMP phosphodiesterase 4B; assay: Inhibition of PDE4B1 (unknown origin)
Mus musculus [6] = assay: Hepatoprotective activity in GalN/LPS-induced C57BL/6J mouse hepatic sepsis model at 3 mg/kg, IG administered once daily for 3 days followed by GalN/LPS addition 1 hr post-last dose measured after 4 hrs by hematoxylin and eosin staining based light microscopy; type: functional, organism-based; conditions: time 3.0 day
[7] = biological target: High affinity 3',5'-cyclic-AMP phosphodiesterase 7A (Homo sapiens) (UniProt Q13946); assay: Inhibition of PDE7A (unknown origin) at 10 uM using FAM-cyclic-3',5'-AMP as substrate measured after 1 hr by fluorescence polarization assay relative to control
Chain of High affinity 3',5'-cyclic-AMP phosphodiesterase 7A (Homo sapiens) (Q13946 whole entry): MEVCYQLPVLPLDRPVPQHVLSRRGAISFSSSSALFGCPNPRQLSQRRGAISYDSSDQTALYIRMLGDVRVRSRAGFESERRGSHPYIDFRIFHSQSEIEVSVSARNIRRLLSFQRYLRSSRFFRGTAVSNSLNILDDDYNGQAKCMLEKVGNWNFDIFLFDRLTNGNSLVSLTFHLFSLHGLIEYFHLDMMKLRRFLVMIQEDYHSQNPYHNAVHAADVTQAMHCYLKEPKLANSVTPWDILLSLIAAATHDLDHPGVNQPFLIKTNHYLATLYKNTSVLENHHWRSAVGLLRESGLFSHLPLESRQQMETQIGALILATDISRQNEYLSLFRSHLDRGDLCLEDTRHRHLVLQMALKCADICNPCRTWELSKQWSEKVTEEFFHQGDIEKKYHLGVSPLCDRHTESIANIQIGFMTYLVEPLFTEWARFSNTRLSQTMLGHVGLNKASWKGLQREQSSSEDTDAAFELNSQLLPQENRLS

[8] = AUC (0 to infinity) in Sprague-Dawley rat at 5 mg/kg, iv by LC-MS/MS analysis; type: ADME, organism-based; conditions: in vivo
[9] = Volume of distribution in Sprague-Dawley rat at 5 mg/kg, iv by LC-MS/MS analysis; type: ADME, organism-based; conditions: in vivo
[10] = biological target: cGMP-specific 3',5'-cyclic phosphodiesterase (Homo sapiens) (UniProt O76074); assay: Inhibition of PDE5A (unknown origin) at 20 uM using FAM-cyclic-3',5'-AMP as substrate measured after 1 hr by fluorescence polarization assay relative to control
Mus musculus [11] = assay: Hepatoprotective activity in GalN/LPS-induced C57BL/6J mouse hepatic sepsis model assessed as reduction in AST level at 1 to 3 mg/kg, IG administered once daily for 3 days followed by GalN/LPS addition 1 hr post-last dose measured after 4 hrs; type: functional, organism-based; conditions: dose 1-3 mg/kg, time 3.0 day
[12] = biological target: High affinity cGMP-specific 3',5'-cyclic phosphodiesterase 9A (Homo sapiens) (UniProt O76083); assay: Inhibition of human N-terminal GST-tagged full-length PDE9A2 expressed in baculovirus infected Sf9 insect cells at 10 uM using FAM-cyclic-3',5'-AMP as substrate measured after 1 hr by fluorescence polarization assay relative to control
Chain of High affinity cGMP-specific 3',5'-cyclic phosphodiesterase 9A (Homo sapiens) (O76083 whole entry): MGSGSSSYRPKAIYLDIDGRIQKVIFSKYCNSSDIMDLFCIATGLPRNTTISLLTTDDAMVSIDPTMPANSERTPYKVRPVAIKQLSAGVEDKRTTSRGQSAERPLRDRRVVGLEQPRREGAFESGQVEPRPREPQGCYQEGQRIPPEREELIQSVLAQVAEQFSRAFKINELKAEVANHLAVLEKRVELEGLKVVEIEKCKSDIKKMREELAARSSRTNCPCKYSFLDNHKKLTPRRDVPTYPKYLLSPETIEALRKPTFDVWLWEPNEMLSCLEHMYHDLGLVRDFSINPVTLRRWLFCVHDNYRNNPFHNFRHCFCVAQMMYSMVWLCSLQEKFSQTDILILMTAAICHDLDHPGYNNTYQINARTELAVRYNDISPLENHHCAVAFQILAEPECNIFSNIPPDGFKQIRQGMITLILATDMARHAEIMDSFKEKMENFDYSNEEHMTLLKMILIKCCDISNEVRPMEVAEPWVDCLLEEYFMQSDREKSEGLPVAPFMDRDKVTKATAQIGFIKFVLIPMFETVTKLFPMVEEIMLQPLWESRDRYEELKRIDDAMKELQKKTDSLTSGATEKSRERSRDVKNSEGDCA

[13] = Half-life in Sprague-Dawley rat at 5 mg/kg, po by LC-MS/MS analysis; type: ADME, organism-based; conditions: in vivo
[14] = Cmax in Sprague-Dawley rat at 5 mg/kg, iv by LC-MS/MS analysis; type: ADME, organism-based; conditions: in vivo
[15] = biological target: High affinity 3',5'-cyclic-AMP phosphodiesterase 7A (Homo sapiens) (UniProt Q13946); assay: Inhibition of PDE7A (unknown origin) at 20 uM using FAM-cyclic-3',5'-AMP as substrate measured after 1 hr by fluorescence polarization assay relative to control
[16] = AUC (0 to t) in Sprague-Dawley rat at 5 mg/kg, iv by LC-MS/MS analysis; type: ADME, organism-based; conditions: in vivo
[17] = Tmax in Sprague-Dawley rat at 5 mg/kg, po by LC-MS/MS analysis; type: ADME, organism-based; conditions: in vivo
Mus musculus [18] = assay: Hepatoprotective activity in GalN/LPS-induced C57BL/6J mouse hepatic sepsis model assessed as reduction in ALT level at 1 to 3 mg/kg, IG administered once daily for 3 days followed by GalN/LPS addition 1 hr post-last dose measured after 4 hrs; type: functional, organism-based; conditions: dose 1-3 mg/kg, time 3.0 day
[19] = AUC(0 to infinity) in Sprague-Dawley rat at 5 mg/kg, po by LC-MS/MS analysis; type: ADME, organism-based; conditions: in vivo
[20] = biological target: High affinity cAMP-specific 3',5'-cyclic phosphodiesterase 8A (Homo sapiens) (UniProt O60658); assay: Inhibition of human N-terminal GST-tagged full-length PDE8A1 expressed in baculovirus infected Sf9 insect cells at 20 uM using FAM-cyclic-3',5'-AMP as substrate measured after 1 hr by fluorescence polarization assay relative to control
Chain of High affinity cAMP-specific 3',5'-cyclic phosphodiesterase 8A (Homo sapiens) (O60658 whole entry, looked up): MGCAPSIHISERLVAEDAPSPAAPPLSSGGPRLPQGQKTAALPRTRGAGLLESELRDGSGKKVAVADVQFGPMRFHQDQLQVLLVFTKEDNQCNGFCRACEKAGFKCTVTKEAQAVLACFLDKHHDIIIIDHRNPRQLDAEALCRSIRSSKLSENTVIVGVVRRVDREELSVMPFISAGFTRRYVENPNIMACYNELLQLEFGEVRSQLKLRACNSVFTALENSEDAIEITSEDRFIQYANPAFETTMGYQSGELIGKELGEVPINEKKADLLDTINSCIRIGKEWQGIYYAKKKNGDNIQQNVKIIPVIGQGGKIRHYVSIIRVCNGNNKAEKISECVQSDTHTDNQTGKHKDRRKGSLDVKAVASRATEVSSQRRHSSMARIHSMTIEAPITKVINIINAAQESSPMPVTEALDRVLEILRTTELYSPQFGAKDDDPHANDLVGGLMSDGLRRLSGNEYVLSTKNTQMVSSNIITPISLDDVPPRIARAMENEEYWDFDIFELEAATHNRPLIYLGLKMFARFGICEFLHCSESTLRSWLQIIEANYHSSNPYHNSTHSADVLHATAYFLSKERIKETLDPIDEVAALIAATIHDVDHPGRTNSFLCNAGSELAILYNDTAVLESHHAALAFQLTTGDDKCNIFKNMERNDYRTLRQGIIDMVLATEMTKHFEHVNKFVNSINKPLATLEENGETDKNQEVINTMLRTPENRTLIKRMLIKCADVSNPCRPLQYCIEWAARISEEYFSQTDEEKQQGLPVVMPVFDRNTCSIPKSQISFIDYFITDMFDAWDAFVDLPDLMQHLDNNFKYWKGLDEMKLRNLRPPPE

[21] = biological target: High affinity cAMP-specific 3',5'-cyclic phosphodiesterase 8A (Homo sapiens) (UniProt O60658); assay: Inhibition of human N-terminal GST-tagged full-length PDE8A1 expressed in baculovirus infected Sf9 insect cells at 10 uM using FAM-cyclic-3',5'-AMP as substrate measured after 1 hr by fluorescence polarization assay relative to control
Mus musculus [22] = assay: (§1) Hepatoprotective activity in GalN/LPS-induced C57BL/6J mouse hepatic sepsis model assessed as reduction in hepatomegaly at 1 to 3 mg/kg, IG administered once daily for 3 days followed by GalN/LPS addition 1 hr post-last dose measured after 4 hrs by hematoxylin and eosin staining based light microscopy; type: functional, organism-based; conditions: dose 1-3 mg/kg, time 3.0 day
[23] = biological target: cGMP-inhibited 3',5'-cyclic phosphodiesterase 3B (Homo sapiens) (UniProt Q13370); assay: Inhibition of recombinant human N-terminal GST-tagged PDE3B (592 to 1112 residues) expressed in Sf9 insect cells at 10 uM using FAM-cyclic-3',5'-AMP as substrate measured after 1 hr by fluorescence polarization assay relative to control
Chain of cGMP-inhibited 3',5'-cyclic phosphodiesterase 3B (Homo sapiens) (Q13370 whole entry, looked up, the tested form may be a part): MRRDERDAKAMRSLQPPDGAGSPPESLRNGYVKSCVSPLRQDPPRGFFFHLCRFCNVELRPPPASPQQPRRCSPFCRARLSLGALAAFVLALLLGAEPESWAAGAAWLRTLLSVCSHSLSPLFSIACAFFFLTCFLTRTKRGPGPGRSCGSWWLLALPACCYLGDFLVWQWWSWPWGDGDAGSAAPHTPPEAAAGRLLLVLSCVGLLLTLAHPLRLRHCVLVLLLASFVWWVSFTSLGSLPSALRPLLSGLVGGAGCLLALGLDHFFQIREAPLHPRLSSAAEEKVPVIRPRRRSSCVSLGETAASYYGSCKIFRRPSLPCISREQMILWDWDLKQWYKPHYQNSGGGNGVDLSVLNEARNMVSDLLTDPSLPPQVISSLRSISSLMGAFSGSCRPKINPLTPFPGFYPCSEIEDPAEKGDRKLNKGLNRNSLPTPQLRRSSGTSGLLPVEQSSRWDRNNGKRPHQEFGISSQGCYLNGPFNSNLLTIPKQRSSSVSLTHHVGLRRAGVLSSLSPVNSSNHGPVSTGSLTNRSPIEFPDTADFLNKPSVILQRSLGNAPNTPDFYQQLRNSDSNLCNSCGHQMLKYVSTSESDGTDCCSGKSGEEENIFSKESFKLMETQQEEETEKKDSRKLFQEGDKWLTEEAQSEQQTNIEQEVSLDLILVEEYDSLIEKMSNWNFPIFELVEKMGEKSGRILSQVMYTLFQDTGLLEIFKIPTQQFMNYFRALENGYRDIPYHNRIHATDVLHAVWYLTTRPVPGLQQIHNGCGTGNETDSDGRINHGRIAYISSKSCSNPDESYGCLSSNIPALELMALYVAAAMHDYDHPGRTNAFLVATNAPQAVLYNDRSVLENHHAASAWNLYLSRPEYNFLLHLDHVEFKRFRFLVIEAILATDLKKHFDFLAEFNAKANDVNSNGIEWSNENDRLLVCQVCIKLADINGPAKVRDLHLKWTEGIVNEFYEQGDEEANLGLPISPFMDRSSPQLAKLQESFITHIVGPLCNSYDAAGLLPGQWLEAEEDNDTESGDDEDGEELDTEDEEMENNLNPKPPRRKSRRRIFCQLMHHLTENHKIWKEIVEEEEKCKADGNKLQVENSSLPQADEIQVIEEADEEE

[24] = Clearance in Sprague-Dawley rat at 5 mg/kg, iv by LC-MS/MS analysis; type: ADME, organism-based; conditions: in vivo
[25] = Cmax in Sprague-Dawley rat at 5 mg/kg, po by LC-MS/MS analysis; type: ADME, organism-based; conditions: in vivo
[26] = biological target: cGMP-inhibited 3',5'-cyclic phosphodiesterase 3B (Homo sapiens) (UniProt Q13370); assay: Inhibition of recombinant human N-terminal GST-tagged PDE3B (592 to 1112 residues) expressed in Sf9 insect cells at 20 uM using FAM-cyclic-3',5'-AMP as substrate measured after 1 hr by fluorescence polarization assay relative to control
Mus musculus [27] = assay: as §1, with “aggregation of inflammatory cells” for “hepatomegaly”; type: functional, organism-based; conditions: dose 1-3 mg/kg, time 3.0 day
Mus musculus [28] = assay: as §1, with “necrotic morphology” for “hepatomegaly”; type: functional, organism-based; conditions: dose 1-3 mg/kg, time 3.0 day
[29] = Half-life in Sprague-Dawley rat at 5 mg/kg, iv by LC-MS/MS analysis; type: ADME, organism-based; conditions: in vivo
[30] = biological target: High affinity cGMP-specific 3',5'-cyclic phosphodiesterase 9A (Homo sapiens) (UniProt O76083); assay: Inhibition of human N-terminal GST-tagged full-length PDE9A2 expressed in baculovirus infected Sf9 insect cells at 20 uM using FAM-cyclic-3',5'-AMP as substrate measured after 1 hr by fluorescence polarization assay relative to control
[31] = Clearance in Sprague-Dawley rat at 5 mg/kg, po by LC-MS/MS analysis; type: ADME, organism-based; conditions: in vivo
[32] = AUC(0 to t) in Sprague-Dawley rat at 5 mg/kg, po by LC-MS/MS analysis; type: ADME, organism-based; conditions: in vivo
[33] = Oral bioavailability in Sprague-Dawley rat at 5 mg/kg by LC-MS/MS analysis; type: ADME, organism-based; conditions: in vivo
[34] = Volume of distribution in Sprague-Dawley rat at 5 mg/kg, po by LC-MS/MS analysis; type: ADME, organism-based; conditions: in vivo
[35] = MRT(0 to t) in Sprague-Dawley rat at 5 mg/kg, iv by LC-MS/MS analysis; type: ADME, organism-based; conditions: in vivo
[36] = MRT(0 to t) in Sprague-Dawley rat at 5 mg/kg, po by LC-MS/MS analysis; type: ADME, organism-based; conditions: in vivo
[37] = biological target: cGMP-specific 3',5'-cyclic phosphodiesterase (Homo sapiens) (UniProt O76074); assay: Inhibition of PDE5A (unknown origin) at 10 uM using FAM-cyclic-3',5'-AMP as substrate measured after 1 hr by fluorescence polarization assay relative to control

T1 sequence (Q08499 whole entry, the tested form may be a part): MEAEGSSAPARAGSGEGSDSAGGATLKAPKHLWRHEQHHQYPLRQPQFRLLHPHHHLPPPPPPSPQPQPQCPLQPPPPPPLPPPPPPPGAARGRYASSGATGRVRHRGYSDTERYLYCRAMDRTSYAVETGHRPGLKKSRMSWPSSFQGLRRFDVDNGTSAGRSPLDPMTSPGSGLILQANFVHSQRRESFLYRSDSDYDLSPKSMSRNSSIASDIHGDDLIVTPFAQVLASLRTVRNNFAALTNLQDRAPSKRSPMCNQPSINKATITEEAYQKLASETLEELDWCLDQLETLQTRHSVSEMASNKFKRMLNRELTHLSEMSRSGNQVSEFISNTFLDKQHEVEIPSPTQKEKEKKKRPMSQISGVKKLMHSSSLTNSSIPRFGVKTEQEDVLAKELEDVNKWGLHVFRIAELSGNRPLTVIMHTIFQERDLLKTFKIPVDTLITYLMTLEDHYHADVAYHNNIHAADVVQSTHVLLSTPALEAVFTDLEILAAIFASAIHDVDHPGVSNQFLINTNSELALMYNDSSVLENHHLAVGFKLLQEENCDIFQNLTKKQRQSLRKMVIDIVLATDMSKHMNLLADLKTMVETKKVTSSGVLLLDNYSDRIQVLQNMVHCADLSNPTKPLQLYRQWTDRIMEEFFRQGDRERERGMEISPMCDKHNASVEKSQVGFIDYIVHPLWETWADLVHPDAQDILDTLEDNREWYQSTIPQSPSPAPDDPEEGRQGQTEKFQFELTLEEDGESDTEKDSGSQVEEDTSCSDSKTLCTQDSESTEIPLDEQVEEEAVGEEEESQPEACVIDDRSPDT

IC50 [1]: 0.047 µM
IC50 [2]: 0.031 µM
bioavailability [3]: < 5%
Compound: CC(C)NC(=O)c1ccc(OC(F)F)c(OCC2CC2)c1

IC50 [4]: 1.61 µM
IC50 [5]: 0.11 µM
Compound: CCNc1cc(C(=O)C2CCCC2)ccc1OC

Compound: COc1ccc(C2CNC(=O)C2)cc1OC1CCCC1 (stereo not drawn)
Activity (Mus musculus [6]): Active

inhibition [7]: 8%
AUC [8]: 5299.87 ng·h/mL
Vd [9]: 1.76 L/kg
inhibition [10]: 17%
inhibition [12]: 5%
t1/2 [13]: 2 h
Cmax [14]: 1740 ng/mL
inhibition [15]: 15%
IC50 [2]: 0.01 µM
AUC(0-t) [16]: 5170 ng·h/mL
Tmax [17]: 0.88 h
AUC [19]: 3669.79 ng·h/mL
inhibition [20]: 14%
inhibition [21]: 6%
inhibition [23]: 11%
clearance [24]: 15.8 mL/min/kg
Cmax [25]: 957 ng/mL
inhibition [26]: 23%
t1/2 [29]: 1.29 h
inhibition [30]: 12%
CL/F [31]: 22.8 mL/min/kg
AUC(0-t) [32]: 3440 ng·h/mL
bioavailability [33]: 66%
Vd [34]: 3.91 L/kg
MRT last [35]: 2.31 h
MRT last [36]: 2.74 h
inhibition [37]: 9%
Compound: COc1ccc(C(=O)Cn2ccnc2)c2cc(C3CC3)oc12
Activity (Mus musculus [11]): Active
Activity (Mus musculus [18]): Active
Activity (Mus musculus [22]): Active
Activity (Mus musculus [27]): Active
Activity (Mus musculus [28]): Active

Reference: ChEMBL document CHEMBL5579823, “Discovery of 7-alkoxybenzofurans as PDE4 inhibitors with hepatoprotective activity in D-GalN/LPS-induced hepatic sepsis” (Eur J Med Chem, 2024)
